Structures can show the parent of a compound that is named as a salt.

Data set [1] is described as follows: Chemical stability of the salts (stress at 60° C. and 75% relative humidity, purity by UHPLC). In kind it is physicochemical. As to conditions: for Purity (%) of 1 day stress samples / Difference between reference and 1 day stressed sample: 1 day at 60° C. and 75% relative humidity; for Purity (%) of 1 day stress samples / Purity (%) of 14 day stress samples / Purity (%) of reference: UHPLC; for Difference between reference and 1 day stressed sample / Difference between reference and 14 day stressed sample: purity difference, in %; for Purity (%) of 14 day stress samples / Difference between reference and 14 day stressed sample: 14 days at 60° C. and 75% relative humidity; for Chemical stability (in words): summary statement; for Purity (%) of reference: unstressed sample. As to the method: The purity analyses were performed using Agilent UHPLC equipment with PDA/DAD detector at 210 nm wavelength and reverse phase liquid chromatography column Acquity UPLC HSS T3, 100×3.0 mm, 1.8 μm (Waters). The chromatography was performed with gradient run using acetonitrile and phosphate buffer (pH 3.0) as eluents.
The chemical stability of various salts of compound (I) was determined by stressing the salts for 1 and 14 days at 60° C. and 75% relative humidity. The unstressed sample was used as an reference. The purity of the samples were analyzed using UHPLC, and the purity difference between the stressed and reference was calculated.

Data set [2] can be described thus: Physical stability of the salts (storage at elevated temperature and relative humidity, re-analysis by XRPD). Conditions: solids exposed for 2 or 3 weeks at 40° C. and 70-80% relative humidity; for Form after stability: XRPD; for Physical stability: re-analyzed by XRPD. Type of data set: physicochemical. As to the method:
XRPD measurements were performed with the X-ray powder diffractometer Bruker D8 Advance at room temperature, using a copper filled X-ray tube (40 kV×40 mA) as the X-ray source, CuKα (λ=1.5418 Å), a 0.6 mm divergence slit, 2.5° Soller slits on both the primary and secondary beams and the 1-dimensional LynxEye detector (with aperture angle of 2.91593°). Data collection was done in the range of 3.8-33° 2θ with 0.02° increments, at a scan speed of 0.3°/s.
A stability test was carried out for all crystalline salt forms resulted from the salt screen by exposing the solids for 2 or 3 weeks at 40° C. and 70-80% relative humidity. After exposure, the solids were re-analyzed by XRPD, followed by physical stability assessment.

The mark [3] stands for this setting: listed as Napthalene-1,5-disulfonic acid salt.
Setting [4] is: listed as 1-Hydroxy-2-naphtoic acid salt.

`COc1cccc2c1CCOC2C1=NCCN1` (stereo not drawn) [Naphthalene-1,5-disulfonic acid salt Form 1] [2-(5-methoxyisochroman-1-yl)-4,5-dihydro-1H-imidazole]: in data set [1] (setting [3]), the “Purity (%) of 1 day stress samples” value came to 96.1%; the “Difference between reference and 1 day stressed sample” value is 0.2; the “Purity (%) of 14 day stress samples” value was 95.7%; the “Difference between reference and 14 day stressed sample” value turned out to be 0.6. The “Purity (%) of reference” value in data set [1] (setting [3]) is 96.3%. The “Chemical stability (in words)” value in data set [1] was “good chemical stability”. Further, in data set [2], the Form after stability result is on record as “Form 1” and the Physical stability entry is “Stable”. The Physical stability entry in data set [2] (listed as naphthalene-1,5-disulfonic acid) is recorded as “remained stable”.
For the molecule `COc1cccc2c1CCOC2C1=NCCN1` (stereo not drawn) [Adipic acid salt Form 1, 2-(5-methoxyisochroman-1-yl)-4,5-dihydro-1H-imidazole], in data set [1], the “Purity (%) of 1 day stress samples” value worked out at 94.7%; the “Difference between reference and 1 day stressed sample” value is 4.4; the “Purity (%) of 14 day stress samples” value is on record as 2.7%; the “Difference between reference and 14 day stressed sample” value stood at 96.5. In data set [1], the “Purity (%) of reference” value worked out at 99.1%. For the same molecule, in data set [2], the Form after stability entry is given as “Form 1” and the Physical stability entry was “Stable”. The Physical stability result in data set [2] (listed as adipic acid) was “remained stable”.
For the molecule `COc1cccc2c1CCOC2C1=NCCN1` (stereo not drawn) [Glycolic acid salt Form 1, 2-(5-methoxyisochroman-1-yl)-4,5-dihydro-1H-imidazole], in data set [1], the “Purity (%) of 1 day stress samples” value is listed as 99.3%; the “Difference between reference and 1 day stressed sample” value came to 0.5; the “Purity (%) of 14 day stress samples” value amounted to 17.6%; the “Difference between reference and 14 day stressed sample” value stood at 82.2. For the same molecule, in data set [1], the “Purity (%) of reference” value was 99.8%. For the same molecule, in data set [2], the Form after stability entry is “Form 1” and the Physical stability entry is “Stable”. Moreover, the Physical stability result in data set [2] (listed as glycolic acid) is “remained stable”.
As for `COc1cccc2c1CCOC2C1=NCCN1` (stereo not drawn) [Malonic acid salt Form 1, 2-(5-methoxyisochroman-1-yl)-4,5-dihydro-1H-imidazole], in data set [1], the “Purity (%) of 1 day stress samples” value is given as 96.6%; the “Difference between reference and 1 day stressed sample” value came out at 1.5; the “Purity (%) of 14 day stress samples” value came to 72.7%; the “Difference between reference and 14 day stressed sample” value is on record as 25.5. In addition, the “Purity (%) of reference” value in data set [1] amounted to 98.2%. Further, in data set [2], the Form after stability result is given as “Form 1” and the Physical stability entry is on record as “Stable”. In data set [2] (listed as malonic acid), the Physical stability entry is reported as “remained stable”.
In the case of `COc1cccc2c1CCOC2C1=NCCN1` (stereo not drawn) [1-Hydroxy-2-napthoic acid salt Form 1, 2-(5-methoxyisochroman-1-yl)-4,5-dihydro-1H-imidazole], in data set [1] (setting [4]), the “Purity (%) of 1 day stress samples” value was found to be 95.4%; the “Difference between reference and 1 day stressed sample” value came out at 3.5; the “Purity (%) of 14 day stress samples” value worked out at 0.6%; the “Difference between reference and 14 day stressed sample” value worked out at 98.3. Moreover, the “Purity (%) of reference” value in data set [1] (setting [4]) came out at 98.9%. In data set [2], the Form after stability entry is reported as “Form 1” and the Physical stability result is reported as “Stable”. In addition, in data set [2] (listed as 1-hydroxy-2-napthoic acid), the Physical stability entry is “remained stable”.
Consider `COc1cccc2c1CCOC2C1=NCCN1` (stereo not drawn) [Mucic acid salt Form 1, 2-(5-methoxyisochroman-1-yl)-4,5-dihydro-1H-imidazole], for which, in data set [1], the “Purity (%) of 1 day stress samples” value is 97.7%; the “Difference between reference and 1 day stressed sample” value worked out at 1.6; the “Purity (%) of 14 day stress samples” value came to 35.6%; the “Difference between reference and 14 day stressed sample” value is reported as 63.6. In addition, in data set [1], the “Purity (%) of reference” value amounted to 99.2%. In data set [2], the Form after stability entry is “Form 1” and the Physical stability entry is reported as “Stable”. Besides, in data set [2] (listed as mucic acid), the Physical stability entry is “remained stable”.
As for `COc1cccc2c1CCOC2C1=NCCN1` (stereo not drawn) [Oxalic acid salt Form 1, 2-(5-methoxyisochroman-1-yl)-4,5-dihydro-1H-imidazole], in data set [1], the “Purity (%) of 1 day stress samples” value worked out at 97.9%; the “Difference between reference and 1 day stressed sample” value is on record as −0.2; the “Purity (%) of 14 day stress samples” value turned out to be 97.9%; the “Difference between reference and 14 day stressed sample” value is −0.2. In data set [1], the “Chemical stability (in words)” value is “good chemical stability” and the “Purity (%) of reference” value is 97.7%. In addition, in data set [2], the Form after stability entry is “Form 1” and the Physical stability entry is on record as “Stable”. Further, the Physical stability result in data set [2] (listed as oxalic acid) is reported as “remained stable”.
`COc1cccc2c1CCOC2C1=NCCN1` (stereo not drawn) [Hydrochloric acid salt Form 1, 2-(5-methoxyisochroman-1-yl)-4,5-dihydro-1H-imidazole]: in data set [1], the “Purity (%) of 1 day stress samples” value stood at 89.8%; the “Difference between reference and 1 day stressed sample” value is 8.7; the “Purity (%) of 14 day stress samples” value was 69.0%; the “Difference between reference and 14 day stressed sample” value amounted to 29.5. In data set [1], the “Purity (%) of reference” value turned out to be 98.6%. Besides, in data set [2], the Form after stability entry is “Form 1” and the Physical stability result is “Stable”. In data set [2] (listed as hydrochloric acid), the Physical stability entry was “remained stable”.
Take `COc1cccc2c1CCOC2C1=NCCN1` (stereo not drawn) [Maleic acid salt Form 1, 2-(5-methoxyisochroman-1-yl)-4,5-dihydro-1H-imidazole]: in data set [1], the “Purity (%) of 1 day stress samples” value worked out at 64.0%; the “Difference between reference and 1 day stressed sample” value amounted to 35.7; the “Purity (%) of 14 day stress samples” value worked out at 33.3%; the “Difference between reference and 14 day stressed sample” value came to 66.4. Besides, in data set [1], the “Purity (%) of reference” value came to 99.6%. In data set [2], the Form after stability entry is “Form 1” and the Physical stability entry is listed as “Stable”. Moreover, the Physical stability result in data set [2] (listed as maleic acid) was “remained stable”.
For the molecule `COc1cccc2c1CCOC2C1=NCCN1` (stereo not drawn) [Fumaric acid salt Form 2, 2-(5-methoxyisochroman-1-yl)-4,5-dihydro-1H-imidazole], in data set [1], the “Purity (%) of 1 day stress samples” value was determined as 97.6%; the “Difference between reference and 1 day stressed sample” value was −0.3; the “Purity (%) of 14 day stress samples” value worked out at 98.0%; the “Difference between reference and 14 day stressed sample” value is on record as −0.8. Besides, the “Purity (%) of reference” value in data set [1] is given as 97.2%. Also, in data set [2], the Form after stability entry is given as “Form 2” and the Physical stability result is given as “Stable”. Moreover, the Physical stability result in data set [2] (listed as fumaric acid (form 2)) is “remained stable”.
For `COc1cccc2c1CCOC2C1=NCCN1` (stereo not drawn) [Glutaric acid salt Form 1, 2-(5-methoxyisochroman-1-yl)-4,5-dihydro-1H-imidazole], in data set [1], the “Purity (%) of 1 day stress samples” value was 78.7%; the “Difference between reference and 1 day stressed sample” value worked out at 17.7; the “Purity (%) of 14 day stress samples” value worked out at 2.0%; the “Difference between reference and 14 day stressed sample” value stood at 94.4. In addition, the “Purity (%) of reference” value in data set [1] came out at 96.4%. In addition, in data set [2], the Form after stability entry is “Form 1” and the Physical stability entry is reported as “Stable”. Further, in data set [2] (listed as glutaric acid), the Physical stability result is “remained stable”.
